How the values were obtained:
Monodeiodinase type 1 = Monodeiodinase type 1 activity in liver and heart homogenates of infused rats; format: in vivo, rat
Experimental: (§1) Seventy-nine male SIVZ rats were purchased from the breeder (Institut für Labortierkunde des Universität Zürich, Zürich, Switzerland). They were rendered hypothyroid by a single injection of [^131I]Na (100 μCi/rat) and before and throughout the experiment 0.02% 2-mercapto-1-methylimidazol (MMI) was added to drinking water. In order to have an euthyroid control group of similar weight and identical age, 10 rats received only MMI in the drinking water and 2 weeks before implanting the minipumps, MMI was withdrawn. Osmotic minipumps (secretion rate 0.25 μl/hour, duration 14 days) were implanted intraperitoneally (i.p.) 2 months after the injection of [^131I]Na. The minipumps were filled with T4 or Tetrac dissolved in 0.05 N NaOH, 2% BSA and 100,000 cpm [^125I]T4 or [^125I]Tetrac as control of their secretion rates. The infusion lasted 13 days. 0, 1.5, 4.5, 13.5 and 40.5 nmol Tetrac/day/100 g or 0.5, 1.5, 4.5 and 13.5 nmol T4/day/100 g bodyweight (BW) (n=4/dose) were infused. An euthyroid control group was included. The animals were weighed every 2 days. Rats were sacrificed by decapitation and blood was collected and stored at −200° C. until use. Tissues (liver, heart, brown adipose tissue, cerebral cortex and pituitary) were removed rapidly, frozen in liquid nitrogen and stored at −700° C. until use.
(§2) Monodeiodinase type 1 and 2 activities. Monodeiodinase type 1 and type 2 activities were determined in tissue homogenates by measuring the release of radioiodide from [^125I]rT3 according to the method of Leonard and Rosenberg (Leonard, J. L. et al. Endocrinology (1980) 106: 444-451).
(§3) Monodeiodinase type 1 activity was measured in liver homogenates using 1 μM rT3 and 1 mM DTT with 10 min of incubation, whereas for heart, 0.01 μM rT3 and 10 mM DTT with 1 hour of incubation. Monodeiodinase type 2 activity was measured in brown adipose tissue (BAT) and cerebral cortex using 1 nM rT3, 10 mM DTT and 1 mM propylthiouracil (PTU) with 1 hour of incubation. Protein concentrations were measured by the method of Bradford (Bio-Rad Laboratories GmbH, Munich, Germany) with bovine gammaglobulin as the protein standard. In order to study the effect of circulating Tetrac on the enzyme activities, 2 rats were injected intraperitoneally with 10 μCi ^125I Tetrac and killed 6 hours later. The tissue homogenates were extracted with 3 volumes of ethanol-NH3 (97:3). After 10 minutes centrifugation at 15,000 g, the supernatant was vacuum dried and applied to TLC (Merck 254, Toluol, acetic acid, water: 2:2:1). In order to calculate the tissue concentrations, the highest serum Tetrac levels were used (406 pmol/ml). The calculated tissue concentrations were: liver: 1.9, heart: 2.29 and brain cortex: 0.47 fluol Tetrac/μg protein.

β-MHC mRNA = test: Northern blot, β-MHC mRNA in heart; format: in vivo, rat
Experimental: as §1
Total RNA extraction and Northern Blot hybridization Total RNA was extracted with the method of Chomczynski and Sacchi (Chomczynski, P. and Sacchi, N. Anal. Biochem. (1987) 162: 156-159). […]
(§4) The amount of labeled mRNA was quantified by scanning laser densitometry (Phosphorimager, Molecular Dynamics; Sunnyvale, USA). Variations in RNA loading and membrane transfer were corrected by densitometric quantification of a negative photograph of 28S and 18S ribosomal RNA bands from ethidium bromide stained RNA gels. […]

SERCA 2a mRNA = test: Northern blot, SERCA 2a mRNA in heart; format: in vivo, rat; conditions: FIG. 2b, compared to T4, p<0.001
Experimental: as §1, with “Rats were sacrificed by decapitation and blood was collected and stored at −200° C. until use. Tissues (liver, heart, brown adipose tissue, cerebral cortex and pituitary) were removed rapidly, frozen in liquid nitrogen and stored at −700° C. until use.” left out
as §4

[1] = tested on: monodeiodinase type 2 mRNA; test: Northern blot, monodeiodinase type 2 mRNA in pituitary; format: in vivo, rat; conditions: FIG. 5b, compared with T4, p=0.001
Experimental: as §1, with “Rats were sacrificed by decapitation and blood was collected and stored at −200° C. until use. Tissues (liver, heart, brown adipose tissue, cerebral cortex and pituitary) were removed rapidly, frozen in liquid nitrogen and stored at −700° C. until use.” left out
as §4

[2] = Tissue concentrations of Tetrac after 125I Tetrac injection; format: in vivo, rat; conditions: for Calculated tissue concentration of Tetrac: calculated with highest serum Tetrac level (406 pmol/ml)
Experimental: as §3

Monodeiodinase type 2 = biological target: T1, Monodeiodinase type 2 (Rattus norvegicus, UniProt P70551); test: Addition of Tetrac to monodeiodinase type 2 assay with microsomal protein from brain cortex; format: biochemical; conditions: 1 fmol Tetrac/μg protein added
T1 construct: monodeiodinase type 2 assay using microsomol protein from brain cortex; from tissue; host or cells: brain cortex microsomal protein
T1 sequence (P70551 1-266): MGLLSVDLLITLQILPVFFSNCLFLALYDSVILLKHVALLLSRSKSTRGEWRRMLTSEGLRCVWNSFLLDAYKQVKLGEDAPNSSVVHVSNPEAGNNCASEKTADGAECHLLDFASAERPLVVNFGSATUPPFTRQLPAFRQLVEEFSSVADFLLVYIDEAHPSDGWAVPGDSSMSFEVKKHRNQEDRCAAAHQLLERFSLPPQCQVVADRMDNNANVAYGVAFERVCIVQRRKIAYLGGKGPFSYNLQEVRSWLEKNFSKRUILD
Experimental: as §2
as §3, with “In order to calculate the tissue concentrations, the highest serum Tetrac levels were used (406 pmol/ml).” left out, “protein. […]” for “protein.”

TSH = test: Suppression of TSH by Tetrac in humans
Experimental: A patient receiving 200 μg/day dose of T4 was withdrawn from T4 treatment and treated with Tetrac for 21 days with a dose of 2100 μg/day.

O=C(O)Cc1cc(I)c(Oc2cc(I)c(O)c(I)c2)c(I)c1 [Tetrac, 3,3′,5,5′-tetraiodothyroacetic acid]
Residual Monodeiodinase type 1 activity, Tetrac/T4 (activity of Tetrac in % of T4) (Monodeiodinase type 1; Liver, at equal serum TSH concentration): 59%
Residual Monodeiodinase type 1 activity, adjusted mean (Monodeiodinase type 1; Liver, infused rats, adjusted group mean at the mean Ln (TSH) concentration): 106
Cardiac monodeiodinase type 1 activity, response to increasing doses (in words) (Monodeiodinase type 1; heart, FIG. 2a, compared to T4, p<0.001): weak response
β-MHC mRNA, Tetrac/T4 (activity of Tetrac in % of T4) (β-MHC mRNA): 66%
β-MHC mRNA, adjusted mean (β-MHC mRNA; infused rats, adjusted group mean at the mean Ln (TSH) concentration): 328 arbitrary units
SERCA 2a mRNA levels, response to increasing doses (in words) (SERCA 2a mRNA): weak response
Inhibition of the mRNA levels of monodeiodinase type 2 (in words) [1]: clearly less efficient
Concentration of Tetrac in brain cortex homogenates ([2]; brain cortex homogenates): less than 1 fmol/μg protein
Calculated tissue concentration of Tetrac ([2]; brain cortex): 0.47 fluol Tetrac/μg protein
Calculated tissue concentration of Tetrac ([2]; heart): 2.29 fluol Tetrac/μg protein
Calculated tissue concentration of Tetrac ([2]; liver): 1.9 fluol Tetrac/μg protein
Monodeiodinase type 2 activity, % of the full activity (Monodeiodinase type 2): 90.5%
TSH after treatment (TSH; one patient withdrawn from T4, Tetrac 2100 μg/day, after 21 days): 6.3 mU/L
TSH before treatment (after T4 withdrawal) (TSH; same patient, start of Tetrac treatment): 151.0 mU/L

From patent US6740680B1, “Pharmaceutical compositions to tetrac and methods of use thereof” (Becton Pharma, Inc., priority 1999, dated 2004)
